Measured values: patent US10426728B2, “Synergistic liposomal formulation for the treatment of cancer” (priority 2013, dated 2019)
Structures can show the parent of a compound that is named as a salt.

How the values were obtained:
[1] = test system: B16F10, K562, U937, rat C6 glioma, EAC, MOLT4 and SW480 cell lines; assay: In vitro EC50 of free anticancer drugs by MTT; assay type: cell-based; conditions: free drug, 2 h treatment
Method: The cells were treated with PC:SA liposome (20-350 μg/ml with respect to PC) or free DOX (500-1000 μg/ml) and free CAMPTOSAR (irinotecan hydrochloride, which is a semisynthetic derivative of camptothecin) (500-10,000 μg/ml). After 2 h of treatment effects on cell viability were determined by MTT assay. EC50 values were determined by nonlinear regression analysis of concentration-response data.

[2] = test system: human PBMC of healthy donors; assay type: cell-based; conditions: 7 μg/ml free CPT, 2 h
Method: For isolation of human peripheral blood mononuclear cells from healthy donors (PBMC) heparinized human peripheral blood was obtained from healthy donors and the mononuclear cells (PBMC) were isolated by the density sedimentation on Histopaque-1077 (400×g, 30 min at RT) and washed and resuspended in RPMI 1640 supplemented with 10% FCS, 2 mM Lglutamine, penicillin (100 U/ml), and streptomycin (100 mg/ml) (30). […] Inhibition of 3-(4, 5-dimethylthiozol-2-yl)-2, 5-diphenyltetrazolium bromide (MTT) reduction to insoluble formazan by mitochondrial dehydrogenase was used as a viability parameter for the cells and compared with untreated control. After treatment with drug for 2 or 4 h the cells were washed with 20 mM PBS and incubated with 2 mg/ml MTT solution for 4 h at 37° C. The reduced formazan was solubilised in DMSO and plates were analyzed by determining the A550 on Thermo [sequence]

rat C6 glioma cells = conditions: 7 μg/ml free CPT, 2 h
Method: (§1) Murine melanoma cell line B16F10, colorectal adenocarcinoma SW480 cell line, human colon carcinoma HCT116 cell line, rat brain astrocytes and rat C6 glioma cell lines were maintained in Dulbecco Modified Eagle Medium (DMEM) supplemented with 10% fetal bovine serum, sodium pyruvate, 2 mM L-glutamine, penicillin, and streptomycin. Murine macrophage cell line RAW 264.7, MOLT-4 cell line (derived from human acute lymphoblastic leukemia), human leukemia cell lines K-562 and human lymphoma cell line U-937 were maintained in RPMI 1640 medium supplemented with 10% fetal bovine serum, sodium pyruvate, 2 mM L-glutamine, penicillin, and streptomycin. The cells were incubated at 37° C. in a humidified atmosphere of 5% CO2 in air (10). The Ehrlichs ascites carcinoma cells (EAC) were maintained in vivo in Swiss albino mice, by intraperitoneal (i.p.) transplantation of 2×10^6 cells/mouse every 15 days. Cells were obtained from the peritoneal fluid after 15 days, washed in 0.2M PBS and resuspended in RPMI medium supplemented with 10% FBS.
(§2) Inhibition of 3-(4, 5-dimethylthiozol-2-yl)-2, 5-diphenyltetrazolium bromide (MTT) reduction to insoluble formazan by mitochondrial dehydrogenase was used as a viability parameter for the cells and compared with untreated control. […] The reduced formazan was solubilised in DMSO and plates were analyzed by determining the A550 on Thermo [sequence]

U937 cells = assay type: cell-based, human; conditions: 7 μg/ml free CPT, 2 h
Method: as §1, §2

SW480 cells = assay: MTT viability assay; assay type: cell-based, human; conditions: 7 μg/ml free CPT, 2 h
Method: as §1, §2

[3] = test system: Ehrlichs ascites carcinoma cells (EAC); assay type: cell-based, mouse; conditions: 7 μg/ml free CPT, 2 h
Method: as §1, §2

B16F10 cells [4] = assay: JC-1 mitochondrial membrane potential flow cytometry; assay type: cell-based, murine; conditions: 7 μg/ml of free CPT, 2 h
Method: Supernatant was carefully removed. 0.5 ml of freshly prepared 5,5′,6,6′-tetrachloro-[…] Iodide (JC-1) working solution containing 1:100 JC-1 stain was added to each pellet. The pellets were resuspended. Cells were incubated in JC-1 working solution for 10-15 min at 37° C. in a CO2 incubator. Cells were washed twice following incubation. Cells were then analyzed by flow cytometry. (BD™ MitoScreen Flow Cytometry Mitochondrial Membrane Potential Detection Kit) (33).

B16F10 cells [5] = assay type: cell-based, murine; conditions: 2 h
Method: Murine melanoma cell line B16F10, colorectal adenocarcinoma SW480 cell line, human colon carcinoma HCT116 cell line, rat brain astrocytes and rat C6 glioma cell lines were maintained in Dulbecco Modified Eagle Medium (DMEM) supplemented with 10% fetal bovine serum, sodium pyruvate, 2 mM L-glutamine, penicillin, and streptomycin. […] The cells were incubated at 37° C. in a humidified atmosphere of 5% CO2 in air (10).
Inhibition of 3-(4, 5-dimethylthiozol-2-yl)-2, 5-diphenyltetrazolium bromide (MTT) reduction to insoluble formazan by mitochondrial dehydrogenase was used as a viability parameter for the cells and compared with untreated control. After treatment with drug for 2 or 4 h the cells were washed with 20 mM PBS and incubated with 2 mg/ml MTT solution for 4 h at 37° C.

| EC50 [1] [µg/mL] | SMILES | killing effect [2] | viability (rat C6 glioma cells) [%] | killing effect (U937 cells) | killing effect (SW480 cells) | viability [3] [%] | green fluorescing monomers (JC-1) (B16F10 cells [4]) [%] | viability (B16F10 cells [5]; 7 μg/ml free CPT) [%] | cells survived (B16F10 cells [5]; free CPT 3.9 μg/ml (REV equivalent) and 6.1 μg/ml (DRV equivalent)) |
| --- | --- | --- | --- | --- | --- | --- | --- | --- | --- |
| 800 to 5000 | CCc1c2c(nc3ccc(OC(=O)N4CCC(N5CCCCC5)CC4)cc13)-c1cc3c(c(=O)n1C2)COC(=O)[C@]3(O)CC [irinotecan hydrochloride] |  |  |  |  |  |  |  |  |
|  | CC[C@@]1(O)C(=O)OCc2c1cc1n(c2=O)Cc2cc3ccccc3nc2-1 [CPT, camptothecin] | no killing effect | 71 | no killing effect | no killing effect | 56 | 7 | 38 | about 38% |
